Experimental data: the CheMixHub ionic liquid set

Test: xn = mol fraction of the nth substance listed

[N-]=C=S.[NH4+] + CC[n+]1ccn(C)c1.N#C[S-]
100 kPa
Conditions	electrical conductivity [S/m]	viscosity [mPa·s]
313.15 K, x1 = 0.039	3.12	16.11
318.15 K, x1 = 0.039	–	14.28
318.15 K, x1 = 0.1395	3.28	16.71
323.15 K, x1 = 0.1395	3.71	14.61
328.15 K, x1 = 0.039	–	11.19
333.15 K, x1 = 0.099	–	10.92
343.15 K, x1 = 0.1395	–	9.2
348.15 K, x1 = 0.099	–	8.08
353.15 K, x1 = 0.099	–	7.28
353.15 K, x1 = 0.1395	–	7.48

OCCO + CC[n+]1ccn(C)c1.O=C([O-])C(F)(F)F
100 kPa, x1 = 1
Conditions	viscosity [mPa·s]
293.15 K	20.8
298.15 K	16.8
303.15 K	13.8
313.15 K	9.52

O=S(=O)([N-]S(=O)(=O)C(F)(F)F)C(F)(F)F.[Li+] + CC[n+]1ccn(C)c1.O=S(=O)([N-]S(=O)(=O)C(F)(F)F)C(F)(F)F
101 kPa
Conditions	electrical conductivity, x2 = 0.6878 [S/m]	electrical conductivity, x2 = 0.746 [S/m]	electrical conductivity, x2 = 0.7874 [S/m]	electrical conductivity, x2 = 0.8765 [S/m]	electrical conductivity, x2 = 0.9376 [S/m]	viscosity, x2 = 0.8 [mPa·s]
288.15 K	0.094	0.146	0.189	0.351	0.461	–
298.15 K	0.175	0.253	0.315	0.539	0.686	89.9
333.15 K	0.739	0.91	1.06	1.53	1.79	–
358.15 K	–	–	–	–	–	13.33

O=S(=O)([N-]S(=O)(=O)C(F)(F)F)C(F)(F)F.[Li+] + CC[n+]1ccn(C)c1.O=S(=O)([N-]S(=O)(=O)C(F)(F)F)C(F)(F)F + O
Conditions	electrical conductivity [S/m]	viscosity [mPa·s]
283 K, 101 kPa, x1 = 0.2649, x2 = 0	0.62	–
283 K, 101 kPa, x1 = 0.2649, x2 = 0.2649	0.37	90.3
283 K, 101 kPa, x1 = 0.4189, x2 = 0.2649	0.049	–
293 K, 101 kPa, x1 = 0.2649, x2 = 0	0.89	69.2
293 K, 101 kPa, x1 = 0.2649, x2 = 0.2649	0.56	55
293 K, 101 kPa, x1 = 0.4189, x2 = 0.2649	0.093	407
293.15 K, 100 kPa, x1 = 0.2745, x2 = 0.3509	–	55.7
293.15 K, 100 kPa, x1 = 0.3106, x2 = 0.3509	–	71.5
293.15 K, 100 kPa, x1 = 0.3509, x2 = 0.3509	–	111
293.15 K, 100 kPa, x1 = 0.3868, x2 = 0.3509	–	157
293.15 K, 100 kPa, x1 = 0.4189, x2 = 0.3509	–	220
293.15 K, 100 kPa, x1 = 0.4478, x2 = 0.3509	–	312
293.15 K, 100 kPa, x1 = 0.474, x2 = 0.3509	–	470
293.15 K, 100 kPa, x1 = 0.4978, x2 = 0.3509	–	715
298.1 K, 101 kPa, x1 = 0.2649, x2 = 0	1.04	55.3
298.1 K, 101 kPa, x1 = 0.2649, x2 = 0.2649	0.67	44.2
298.1 K, 101 kPa, x1 = 0.4189, x2 = 0.2649	0.12	293
298.15 K, 100 kPa, x1 = 0.2745, x2 = 0.3509	–	43.1
298.15 K, 100 kPa, x1 = 0.3106, x2 = 0.3509	–	55.3
298.15 K, 100 kPa, x1 = 0.3509, x2 = 0.3509	–	86.4
298.15 K, 100 kPa, x1 = 0.3868, x2 = 0.3509	–	120
298.15 K, 100 kPa, x1 = 0.4189, x2 = 0.3509	–	164
298.15 K, 100 kPa, x1 = 0.4478, x2 = 0.3509	–	227
298.15 K, 100 kPa, x1 = 0.474, x2 = 0.3509	–	336
298.15 K, 100 kPa, x1 = 0.4978, x2 = 0.3509	–	497
303 K, 101 kPa, x1 = 0.2649, x2 = 0	1.22	45.4
303 K, 101 kPa, x1 = 0.2649, x2 = 0.2649	0.8	36
303 K, 101 kPa, x1 = 0.4189, x2 = 0.2649	0.16	216
303.15 K, 100 kPa, x1 = 0.2745, x2 = 0.3509	–	34.6
303.15 K, 100 kPa, x1 = 0.3106, x2 = 0.3509	–	44.4
303.15 K, 100 kPa, x1 = 0.3509, x2 = 0.3509	–	62.3
303.15 K, 100 kPa, x1 = 0.3868, x2 = 0.3509	–	92.4
303.15 K, 100 kPa, x1 = 0.4189, x2 = 0.3509	–	126
303.15 K, 100 kPa, x1 = 0.4478, x2 = 0.3509	–	171
303.15 K, 100 kPa, x1 = 0.474, x2 = 0.3509	–	245
303.15 K, 100 kPa, x1 = 0.4978, x2 = 0.3509	–	356
313 K, 101 kPa, x1 = 0.2649, x2 = 0	1.6	30.9
313 K, 101 kPa, x1 = 0.2649, x2 = 0.2649	1.1	24.9
313 K, 101 kPa, x1 = 0.4189, x2 = 0.2649	0.25	125
313.15 K, 100 kPa, x1 = 0.2745, x2 = 0.3509	–	23.4
313.15 K, 100 kPa, x1 = 0.3106, x2 = 0.3509	–	30.1
313.15 K, 100 kPa, x1 = 0.3509, x2 = 0.3509	–	41.2
313.15 K, 100 kPa, x1 = 0.3868, x2 = 0.3509	–	57.6
313.15 K, 100 kPa, x1 = 0.4189, x2 = 0.3509	–	78.2
313.15 K, 100 kPa, x1 = 0.4478, x2 = 0.3509	–	102
313.15 K, 100 kPa, x1 = 0.474, x2 = 0.3509	–	142
313.15 K, 100 kPa, x1 = 0.4978, x2 = 0.3509	–	197
323 K, 101 kPa, x1 = 0.2649, x2 = 0	2.04	21.8
323 K, 101 kPa, x1 = 0.2649, x2 = 0.2649	1.45	18.2
323 K, 101 kPa, x1 = 0.4189, x2 = 0.2649	0.38	78.5
323.15 K, 100 kPa, x1 = 0.2745, x2 = 0.3509	–	16.7
323.15 K, 100 kPa, x1 = 0.3106, x2 = 0.3509	–	21.4
323.15 K, 100 kPa, x1 = 0.3509, x2 = 0.3509	–	29
323.15 K, 100 kPa, x1 = 0.3868, x2 = 0.3509	–	39
323.15 K, 100 kPa, x1 = 0.4189, x2 = 0.3509	–	50.9
323.15 K, 100 kPa, x1 = 0.4478, x2 = 0.3509	–	61.3
323.15 K, 100 kPa, x1 = 0.474, x2 = 0.3509	–	89.2
323.15 K, 100 kPa, x1 = 0.4978, x2 = 0.3509	–	120
333 K, 101 kPa, x1 = 0.2649, x2 = 0	2.58	16.2
333 K, 101 kPa, x1 = 0.2649, x2 = 0.2649	1.83	13.8
333 K, 101 kPa, x1 = 0.4189, x2 = 0.2649	0.53	51.9
333.15 K, 100 kPa, x1 = 0.2745, x2 = 0.3509	–	12.4
333.15 K, 100 kPa, x1 = 0.3106, x2 = 0.3509	–	15.9
333.15 K, 100 kPa, x1 = 0.3509, x2 = 0.3509	–	20.1
333.15 K, 100 kPa, x1 = 0.3868, x2 = 0.3509	–	26.2
333.15 K, 100 kPa, x1 = 0.4189, x2 = 0.3509	–	34.2
333.15 K, 100 kPa, x1 = 0.4478, x2 = 0.3509	–	41.8
333.15 K, 100 kPa, x1 = 0.474, x2 = 0.3509	–	53.7
333.15 K, 100 kPa, x1 = 0.4978, x2 = 0.3509	–	78.1
343.15 K, 100 kPa, x1 = 0.2745, x2 = 0.3509	–	9.49
343.15 K, 100 kPa, x1 = 0.3106, x2 = 0.3509	–	12.2
343.15 K, 100 kPa, x1 = 0.3509, x2 = 0.3509	–	15.2
343.15 K, 100 kPa, x1 = 0.3868, x2 = 0.3509	–	19.1
343.15 K, 100 kPa, x1 = 0.4189, x2 = 0.3509	–	24.5
343.15 K, 100 kPa, x1 = 0.4478, x2 = 0.3509	–	29.6
343.15 K, 100 kPa, x1 = 0.474, x2 = 0.3509	–	37.2
343.15 K, 100 kPa, x1 = 0.4978, x2 = 0.3509	–	49.7
353.15 K, 100 kPa, x1 = 0.2745, x2 = 0.3509	–	7.49
353.15 K, 100 kPa, x1 = 0.3106, x2 = 0.3509	–	9.62
353.15 K, 100 kPa, x1 = 0.3509, x2 = 0.3509	–	11.8
353.15 K, 100 kPa, x1 = 0.3868, x2 = 0.3509	–	14.5
353.15 K, 100 kPa, x1 = 0.4189, x2 = 0.3509	–	18.4
353.15 K, 100 kPa, x1 = 0.4478, x2 = 0.3509	–	21.9
353.15 K, 100 kPa, x1 = 0.474, x2 = 0.3509	–	27
353.15 K, 100 kPa, x1 = 0.4978, x2 = 0.3509	–	35
363.15 K, 100 kPa, x1 = 0.2745, x2 = 0.3509	–	6.01
363.15 K, 100 kPa, x1 = 0.3106, x2 = 0.3509	–	7.72
363.15 K, 100 kPa, x1 = 0.3509, x2 = 0.3509	–	9.69
363.15 K, 100 kPa, x1 = 0.3868, x2 = 0.3509	–	11.3
363.15 K, 100 kPa, x1 = 0.4189, x2 = 0.3509	–	14.2
363.15 K, 100 kPa, x1 = 0.4478, x2 = 0.3509	–	16.6
363.15 K, 100 kPa, x1 = 0.474, x2 = 0.3509	–	20.3
363.15 K, 100 kPa, x1 = 0.4978, x2 = 0.3509	–	25.7

O=S(=O)([N-]S(=O)(=O)C(F)(F)F)C(F)(F)F.[Li+] + CC[n+]1ccn(C)c1.O=S(=O)([O-])C(F)(F)F
electrical conductivity [S/m], 101 kPa
Conditions	x1 = 0.007746	x1 = 0.01537	x2 = 0.9697	x2 = 0.9746
288.15 K	0.587	0.557	–	0.538
298.15 K	0.844	0.823	0.778	0.785
333.15 K	2.14	2.13	2.04	2.04

OCCO + CC[n+]1ccn(C)c1.O=S(=O)([O-])C(F)(F)F
100 kPa, x1 = 1
Conditions	viscosity [mPa·s]
308.15 K	11.16
318.15 K	7.91
